Results taken from the NIST ThermoML archive (doi:10.1021/je600519p).

Assay: xn = mol fraction of the nth substance listed
Settings: 101 kPa, Liquid

CC(=O)c1ccccc1 [acetophenone] + CCOC(=O)OCC
Settings	mass density [kg/m3]	speed of sound [m/s]	viscosity [mPa·s]
293.15 K, x2 = 0.0511	1025.19	1443	1.754
293.15 K, x2 = 0.1014	1023.01	1405	1.688
293.15 K, x2 = 0.1501	1020.69	1377	1.625
293.15 K, x2 = 0.1996	1018.39	1347	1.564
293.15 K, x2 = 0.2465	1016.19	1322	1.507
293.15 K, x2 = 0.3041	1013.29	1297	1.441
293.15 K, x2 = 0.3467	1011.15	1280	1.391
293.15 K, x2 = 0.4001	1008.46	1265	1.329
293.15 K, x2 = 0.4507	1005.89	1251	1.276
293.15 K, x2 = 0.4888	1003.9	1242	1.238
293.15 K, x2 = 0.5506	1000.67	1231	1.174
293.15 K, x2 = 0.6038	997.77	1222	1.122
293.15 K, x2 = 0.6498	995.25	1218	1.079
293.15 K, x2 = 0.7104	991.92	1215	1.025
293.15 K, x2 = 0.7513	989.53	1213	0.989
293.15 K, x2 = 0.8078	986.29	1210	0.941
293.15 K, x2 = 0.8522	983.66	1208	0.906
293.15 K, x2 = 0.8993	980.83	1207	0.869
293.15 K, x2 = 0.9488	977.82	1206	0.833
303.15 K, x2 = 0.0511	1016.4	1408	1.455
303.15 K, x2 = 0.1014	1014.09	1369	1.402
303.15 K, x2 = 0.1501	1011.77	1339	1.352
303.15 K, x2 = 0.1996	1009.35	1312	1.302
303.15 K, x2 = 0.2465	1007.04	1290	1.257
303.15 K, x2 = 0.3041	1004.02	1265	1.203
303.15 K, x2 = 0.3467	1001.78	1249	1.165
303.15 K, x2 = 0.4001	998.99	1232	1.118
303.15 K, x2 = 0.4507	996.27	1217	1.075
303.15 K, x2 = 0.4888	994.18	1208	1.042
303.15 K, x2 = 0.5506	990.73	1198	0.993
303.15 K, x2 = 0.6038	987.73	1194	0.952
303.15 K, x2 = 0.6498	985.06	1193	0.918
303.15 K, x2 = 0.7104	981.54	1192	0.875
303.15 K, x2 = 0.7513	979.05	1191	0.848
303.15 K, x2 = 0.8078	975.68	1190	0.811
303.15 K, x2 = 0.8522	972.91	1189	0.784
303.15 K, x2 = 0.8993	969.91	1188	0.755
303.15 K, x2 = 0.9488	966.78	1187	0.727
313.15 K, x2 = 0.0511	1007.58	1365	1.232
313.15 K, x2 = 0.1014	1005.19	1326	1.188
313.15 K, x2 = 0.1501	1002.73	1292	1.148
313.15 K, x2 = 0.1996	1000.2	1263	1.11
313.15 K, x2 = 0.2465	997.78	1238	1.073
313.15 K, x2 = 0.3041	994.63	1212	1.03
313.15 K, x2 = 0.3467	992.31	1196	0.998
313.15 K, x2 = 0.4001	989.35	1180	0.961
313.15 K, x2 = 0.4507	986.55	1168	0.925
313.15 K, x2 = 0.4888	984.35	1160	0.9
313.15 K, x2 = 0.5506	980.71	1153	0.86
313.15 K, x2 = 0.6038	977.48	1152	0.827
313.15 K, x2 = 0.6498	974.69	1151	0.799
313.15 K, x2 = 0.7104	971.04	1150	0.765
313.15 K, x2 = 0.7513	968.47	1149	0.742
313.15 K, x2 = 0.8078	964.89	1148	0.711
313.15 K, x2 = 0.8522	961.99	1147	0.688
313.15 K, x2 = 0.8993	958.99	1146	0.665
313.15 K, x2 = 0.9488	955.63	1145	0.641
323.15 K, x2 = 0.0511	998.79	1305	1.057
323.15 K, x2 = 0.1014	996.27	1265	1.023
323.15 K, x2 = 0.1501	993.68	1234	0.991
323.15 K, x2 = 0.1996	991.08	1208	0.959
323.15 K, x2 = 0.2465	988.56	1185	0.929
323.15 K, x2 = 0.3041	985.24	1164	0.893
323.15 K, x2 = 0.3467	982.8	1151	0.868
323.15 K, x2 = 0.4001	979.74	1137	0.837
323.15 K, x2 = 0.4507	976.77	1126	0.809
323.15 K, x2 = 0.4888	974.49	1121	0.787
323.15 K, x2 = 0.5506	970.76	1118	0.755
323.15 K, x2 = 0.6038	967.47	1117	0.727
323.15 K, x2 = 0.6498	964.54	1116	0.704
323.15 K, x2 = 0.7104	960.63	1115	0.676
323.15 K, x2 = 0.7513	957.86	1114	0.656
323.15 K, x2 = 0.8078	954.13	1113	0.631
323.15 K, x2 = 0.8522	951.07	1112	0.612
323.15 K, x2 = 0.8993	947.76	1111	0.592
323.15 K, x2 = 0.9488	944.32	1110	0.573
